One molecule from the NIST ThermoML archive (doi:10.1016/j.jct.2016.07.012) can be followed below.

For the data set the following is noted: Crystal; Adiabatic calorimetry.

± gives the expanded uncertainty stated by the source.

As for `CCCCn1cc[n+](C)c1.F[P-](F)(F)(F)(F)F` [1-butyl-3-methylimidazolium hexafluorophosphate], the Triple point temperature was found to be 283.55 ± 0.05 K.
